{"source": "patent US20210301306A1", "about": "(priority 2018, published 2021)", "tested_on": "normally fed mice", "assay": "Feeding behavior in normally fed mice injected into the stomach wall with vector, then given CNO", "assay_type": "in vivo", "conditions": "1 mg/kg CNO, FIGS. 9A-9E", "description": "FIG. 3 depicts the response of normally fed […] mice injected into the stomach wall with retroAAV/rh10 expressing a DREADD (hD3q) which activates neurons in response to 1 mg/kg CNO. Animals injected with retroAAV/rh10 expressing the marker gene mCherry fed normally in response to CNO.", "data": [{"compound": "C[N+]1([O-])CCN(C2=Nc3cc(Cl)ccc3Nc3ccccc32)CC1", "note": "[CNO, clozapine-N-oxide]", "values": [{"measurement": "long term feeding behavior", "result": "long term stability of reduced feeding behavior"}]}]}
